Experimental data: patent US20250171431A1, “HETEROCYCLIC INHIBITORS OF IGF-1R FOR TREATMENT OF DISEASE” (HORIZON THERAPEUTICS IRELAND DAC, priority 2023, published 2025)

What was measured:
[1] = target: T1, IGF-1R (Homo sapiens (Human), UniProt P08069); test: Example B-2: IGF-1R Assay (PathHunter cell lines, EC80 agonist challenge); assay type: cell-based; details: read-out: IC50 (Biological Activity against IGF-1R)
Description: PathHunter cell lines were expanded from freezer stocks according to standard procedures. Cells were seeded in a total volume of 20 μL into white walled, 384-well microplates and incubated for the appropriate time prior to testing.
Cells are pre-incubated with compound followed by EC80 agonist challenge as follows: • 1. Intermediate dilution of sample stocks was performed to generate 5× sample in assay buffer. • 2. 5 μL of 5× sample was added to cells and incubated at 37° C. for 60 minutes. Vehicle concentration was 1%. • 3. 5 μL of 6×EC80 agonist in assay buffer was added to the cells and incubated at room temperature for 3 hours.
Assay signal was generated through a single addition of 12.5 or 15 μL (50% v/v) of PathHunter Detection reagent cocktail for agonist and antagonist assays respectively, followed by a one hour incubation at room temperature. Microplates were read following signal generation with a PerkinElmer Envision™ instrument for chemilumine-scent signal detection.
Compound activity was analyzed using CBIS data analysis suite (ChemInnovation, CA). Percentage inhibition was calculated using the following formula: % Inhibition=100%×(1−(mean RLU of test sample−mean RLU of vehicle control)/(mean RLU of EC80 control−mean RLU of vehicle control)). The activity for representative examples of the invention is shown in the following table, wherein A: IC50≤500 nM; B: 500 nM<IC50≤2 μM; C: […]≤10 μM; D: IC50>[…].
Target sequence in this assay (P08069 31-1367, species assumed): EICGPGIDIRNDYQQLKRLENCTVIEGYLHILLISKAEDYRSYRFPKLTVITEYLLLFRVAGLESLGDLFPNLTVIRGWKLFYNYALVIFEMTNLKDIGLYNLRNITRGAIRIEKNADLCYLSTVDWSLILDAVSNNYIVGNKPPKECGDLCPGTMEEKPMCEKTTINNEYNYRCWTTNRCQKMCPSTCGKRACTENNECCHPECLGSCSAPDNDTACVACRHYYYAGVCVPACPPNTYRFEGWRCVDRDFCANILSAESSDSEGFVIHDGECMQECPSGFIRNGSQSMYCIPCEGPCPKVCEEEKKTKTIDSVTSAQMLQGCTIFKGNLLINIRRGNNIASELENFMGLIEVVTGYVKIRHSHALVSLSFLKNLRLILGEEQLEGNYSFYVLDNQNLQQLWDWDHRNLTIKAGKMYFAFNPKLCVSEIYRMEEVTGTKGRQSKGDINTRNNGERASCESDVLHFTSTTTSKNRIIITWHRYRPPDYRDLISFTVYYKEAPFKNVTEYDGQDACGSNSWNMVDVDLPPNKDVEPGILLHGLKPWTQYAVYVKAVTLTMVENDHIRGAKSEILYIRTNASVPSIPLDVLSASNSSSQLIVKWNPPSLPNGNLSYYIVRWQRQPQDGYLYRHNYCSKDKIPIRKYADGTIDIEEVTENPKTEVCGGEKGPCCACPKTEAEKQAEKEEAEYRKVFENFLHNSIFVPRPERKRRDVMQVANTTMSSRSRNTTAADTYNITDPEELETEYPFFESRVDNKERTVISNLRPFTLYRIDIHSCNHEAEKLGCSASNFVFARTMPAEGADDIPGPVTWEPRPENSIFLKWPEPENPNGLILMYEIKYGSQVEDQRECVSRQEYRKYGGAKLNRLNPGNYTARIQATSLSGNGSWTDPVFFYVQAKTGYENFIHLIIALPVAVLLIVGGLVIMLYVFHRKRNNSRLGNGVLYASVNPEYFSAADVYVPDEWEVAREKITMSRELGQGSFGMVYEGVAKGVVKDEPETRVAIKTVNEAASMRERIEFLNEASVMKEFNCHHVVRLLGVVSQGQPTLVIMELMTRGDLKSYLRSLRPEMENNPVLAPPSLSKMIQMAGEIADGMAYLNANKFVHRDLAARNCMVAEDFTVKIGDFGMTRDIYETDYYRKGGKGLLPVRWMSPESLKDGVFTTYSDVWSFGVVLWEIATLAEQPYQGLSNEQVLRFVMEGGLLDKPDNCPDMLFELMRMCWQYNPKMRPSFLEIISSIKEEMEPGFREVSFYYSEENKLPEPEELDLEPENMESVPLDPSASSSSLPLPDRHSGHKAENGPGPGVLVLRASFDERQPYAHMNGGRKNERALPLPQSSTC

[2] = target: T1, IGF-1R; test: Example B-1: IGF-1R Assay (PC3 cells, IGF1 stimulation, AlphaLISA); assay type: cell-based; details: 200 ng/mL IGF1 stimulation, read-out: Biological Activity against IGF-1R IC50
Outline: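 PC3 cells were serum-starved 2 h, treated with serially diluted compounds for 2 h, then stimulated with IGF1 (200 ng/mL final) for 30 min. Lysates were read by AlphaLISA; % inhibition was calculated relative to vehicle and EC80 controls, with IC50 values binned into ranges.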
Target sequence in this assay (P08069 31-1367): as the sequence (P08069 31-1367, species assumed) above

Row | SMILES | IC50 [1] | IC50 [2]
1 | COc1cc(Nc2nccc(Nc3cnc4cc(F)c(F)cc4c3)n2)c(Cl)cc1O[C@H]1C[C@@H](N(C)C)C1 [Compound 153, N2-(2-chloro-4-((1s,3s)-3-(dimethylamino)cyclobutoxy)-5-methoxyphenyl)-N4-(6,7-difluoroquinolin-3-yl)pyrimidine-2,4-diamine] | ≤ 500 nM | ≤ 500 nM
2 | COc1cc(Nc2nccc(Nc3cnc4ccc(C(F)F)cc4c3)n2)ccc1O[C@H]1C[C@H](N(C)C)C1 [Compound 162, 4-[6-(difluoromethyl)-3-quinolylamino]-2-{3-methoxy-4-[(1r,3r)-3-(dimethylamino)cyclobutoxy]phenylamino}pyrimidine] | 500 to 2000 nM | ≤ 500 nM
3 | COc1cc(Nc2nccc(Nc3cnc4ccc(Cl)cc4c3)n2)ccc1O[C@H]1C[C@H](N(C)C)C1 [Compound 195, 4-(6-chloro-3-quinolylamino)-2-{3-methoxy-4-[(1r,3r)-3-(dimethylamino)cyclobutoxy]phenylamino}pyrimidine] | ≤ 500 nM | ≤ 500 nM
4 | COc1cc(Nc2nccc(Nc3cnc4c(c3)OCCO4)n2)ccc1O[C@H]1C[C@@H](N(C)C)C1 [Compound 200, 4-(2,3-dihydro-1,4-dioxa-5-aza-7-naphthylamino)-2-{3-methoxy-4-[(1s,3s)-3-(dimethylamino)cyclobutoxy]phenylamino}pyrimidine] | ≤ 500 nM | ≤ 500 nM
5 | COc1cc(Nc2nccc(Nc3cnc4ccccc4c3)n2)ccc1O[C@H]1C[C@@H](N(C)C)C1 [Compound 204, 2-{3-methoxy-4-[(1s,3s)-3-(dimethylamino)cyclobutoxy]phenylamino}-4-(3-quinolylamino)pyrimidine] | ≤ 500 nM | ≤ 500 nM
6 | COc1cc(N2CCN(CC(F)F)CC2)ncc1Nc1nccc(Nc2cc3cccc(F)c3[nH]c2=O)n1 [Compound 217, 3-(2-{6-[4-(2,2-difluoroethyl)-1-piperazinyl]-4-methoxy-3-pyridylamino}-4-pyrimidinylamino)-8-fluoro-1,2-dihydro-2-quinolinone] | > 10000 nM | 500 to 2000 nM
7 | COc1cc(N2CCNC(C(F)F)C2)ncc1Nc1nccc(Nc2cc3cccc(F)c3[nH]c2=O)n1 (stereo not shown) [Compound 218, 3-(2-{6-[3-(difluoromethyl)-1-piperazinyl]-4-methoxy-3-pyridylamino}-4-pyrimidinylamino)-8-fluoro-1,2-dihydro-2-quinolinone] | 500 to 2000 nM | ≤ 500 nM
8 | COc1cc(Nc2nccc(Nc3cc4cccc(F)c4[nH]c3=O)n2)ccc1C1CCOCC1 [Compound 219, 8-fluoro-3-{2-[3-methoxy-4-(tetrahydro-2H-pyran-4-yl)phenylamino]-4-pyrimidinylamino}-1,2-dihydro-2-quinolinone] | > 10000 nM | ≤ 500 nM
9 | COc1cc(C2CCOCC2)ccc1Nc1nccc(Nc2cc3cccc(F)c3[nH]c2=O)n1 [Compound 220, 8-fluoro-3-{2-[2-methoxy-4-(tetrahydro-2H-pyran-4-yl)phenylamino]-4-pyrimidinylamino}-1,2-dihydro-2-quinolinone] | 500 to 2000 nM | ≤ 500 nM
10 | COc1cc(N2CCNC3(CC3)C2)ncc1Nc1nccc(Nc2cc3cccc(F)c3[nH]c2=O)n1 [Compound 221, 3-(2-{6-(4,7-diaza-7-spiro[2.5]octyl)-4-methoxy-3-pyridylamino}-4-pyrimidinylamino)-8-fluoro-1,2-dihydro-2-quinolinone] | 500 to 2000 nM | ≤ 500 nM
11 | COc1cc(Nc2nccc(Nc3cc4cccc(F)c4[nH]c3=O)n2)cnc1C1CCNCC1 [Compound 223, 8-fluoro-3-{2-[5-methoxy-6-(4-piperidyl)-3-pyridylamino]-4-pyrimidinylamino}-1,2-dihydro-2-quinolinone] | 500 to 2000 nM | ≤ 500 nM
12 | COc1nc(C2CCOCC2)ccc1Nc1nccc(Nc2cc3cccc(F)c3[nH]c2=O)n1 [Compound 224, 8-fluoro-3-{2-[2-methoxy-6-(tetrahydro-2H-pyran-4-yl)-3-pyridylamino]-4-pyrimidinylamino}-1,2-dihydro-2-quinolinone] | 500 to 2000 nM | ≤ 500 nM

Now from value to compound:

Row | IC50 [1] | IC50 [2] | SMILES
13 | ≤ 500 nM | ≤ 500 nM | CN(C)CC(=O)N1CCOc2cc(Nc3nccc(Nc4cnc5cc(F)c(F)cc5c4)n3)ccc21 [Compound 152, 1-(7-((4-((6,7-difluoroquinolin-3-yl)amino)pyrimidin-2-yl)amino)-2,3-dihydro-4H-benzo[b][1.4]oxazin-4-yl)-2-(dimethylamino)ethan-1-one]
14 | 500 to 2000 nM | ≤ 500 nM | COc1cc(Nc2nccc(Nc3cc4cccc(F)c4[nH]c3=O)n2)cnc1N1CCC(C)(O)CC1 [Compound 159, 8-fluoro-3-((2-((6-(4-hydroxy-4-methylpiperidin-1-yl)-5-methoxypyridin-3-yl)amino)pyrimidin-4-yl)amino)quinolin-2(1H)-one]
15 | ≤ 500 nM | ≤ 500 nM | CN(C)CC1COc2cc(Nc3nccc(Nc4cnc5cc(F)c(F)cc5c4)n3)ccc2O1 (stereo not shown) [Compound 169, 4-(6,7-difluoro-3-quinolylamino)-2-{2-[(dimethylamino)methyl]-2,3-dihydro-1,4-benzodioxin-6-ylamino}pyrimidine]
16 | 500 to 2000 nM | 500 to 2000 nM | Clc1ccc2ncc(Nc3ccnc(Nc4ccc5c(c4)OCCO5)n3)cc2c1 [Compound 170, 4-(6-chloro-3-quinolylamino)-2-(2,3-dihydro-1,4-benzodioxin-6-ylamino)pyrimidine]
17 | ≤ 500 nM | ≤ 500 nM | CN(C)CC1COc2cc(Nc3nccc(Nc4cc5ccccc5nc4C(N)=O)n3)ccc2O1 (stereo not shown) [Compound 171, 3-((2-((2-((dimethylamino)methyl)-2,3-dihydrobenzo[b][1,4]dioxin-6-yl)amino)pyrimidin-4-yl)amino)quinoline-2-carboxamide]
18 | ≤ 500 nM | ≤ 500 nM | CN(C)CC1COc2cc(Nc3nccc(Nc4cnc5ccc(Cl)cc5c4)n3)cnc2O1 (stereo not shown) [Compound 177, 4-(6-chloro-3-quinolylamino)-2-{3-[(dimethylamino)methyl]-2,3-dihydro-1,4-dioxa-5-aza-7-naphthylamino}pyrimidine]
19 | ≤ 500 nM | ≤ 500 nM | CN(C)CC1COc2cc(Nc3nccc(Nc4cnc5ccccc5c4)n3)cnc2O1 (stereo not shown) [Compound 178, 2-{3-[(dimethylamino)methyl]-2,3-dihydro-1,4-dioxa-5-aza-7-naphthylamino}-4-(3-quinolylamino)pyrimidine]
20 | ≤ 500 nM | ≤ 500 nM | COc1cc(Nc2nccc(Nc3cnc4ccc(Cl)cc4c3)n2)ccc1OCCCN1CCCCC1 [Compound 196, 4-(6-chloro-3-quinolylamino)-2-[3-methoxy-4-(3-piperidinopropoxy)phenylamino]pyrimidine]
21 | ≤ 500 nM | ≤ 500 nM | COc1cc(C2CCN(CC#N)CC2)ncc1Nc1nccc(Nc2cc3cccc(F)c3[nH]c2=O)n1 [Compound 211, (4-{5-[4-(8-fluoro-2-oxo-1,2-dihydro-3-quinolylamino)-2-pyrimidinylamino]-4-methoxy-2-pyridyl}-1-piperidyl)acetonitrile]
22 | 500 to 2000 nM | ≤ 500 nM | COc1nc(C2CCN(CC#N)CC2)ccc1Nc1nccc(Nc2cc3cccc(F)c3[nH]c2=O)n1 [Compound 212, (4-{5-[4-(8-fluoro-2-oxo-1,2-dihydro-3-quinolylamino)-2-pyrimidinylamino]-6-methoxy-2-pyridyl}-1-piperidyl)acetonitrile]
23 | ≤ 500 nM | ≤ 500 nM | COc1cc(C2CCN(CC#N)CC2)ccc1Nc1nccc(Nc2cc3cccc(F)c3[nH]c2=O)n1 [Compound 213, (4-{4-[4-(8-fluoro-2-oxo-1,2-dihydro-3-quinolylamino)-2-pyrimidinylamino]-3-methoxyphenyl}-1-piperidyl)acetonitrile]
24 | ≤ 500 nM | ≤ 500 nM | COc1cc(C2CCOCC2)ncc1Nc1nccc(Nc2cc3cccc(F)c3[nH]c2=O)n1 [Compound 214, 8-fluoro-3-{2-[4-methoxy-6-(tetrahydro-2H-pyran-4-yl)-3-pyridylamino]-4-pyrimidinylamino}-1,2-dihydro-2-quinolinone]
25 | ≤ 500 nM | ≤ 500 nM | COc1cc([C@H]2CC[C@](C)(O)CC2)ccc1Nc1nccc(Nc2cc3cccc(F)c3[nH]c2=O)n1 [Compound 215, 8-fluoro-3-(2-{2-methoxy-4-[(1s,4s)-4-hydroxy-4-methylcyclohexyl]phenylamino}-4-pyrimidinylamino)-1,2-dihydro-2-quinolinone]
26 | ≤ 500 nM | ≤ 500 nM | COc1cc([C@H]2CC[C@@](C)(O)CC2)ccc1Nc1nccc(Nc2cc3cccc(F)c3[nH]c2=O)n1 [Compound 216, 8-fluoro-3-(2-{2-methoxy-4-[(1r,4r)-4-hydroxy-4-methylcyclohexyl]phenylamino}-4-pyrimidinylamino)-1,2-dihydro-2-quinolinone]
